Key:
incised wound of skin = assay: Incised wound healing by intravenous infusion; format: in vivo, Wistar rats; settings: vs physiological saline
Method: In order to investigate the effects of low dosages, low doses or low concentrations of ginsenoside Rb1 on regeneration and/or reconstruction of skin tissue, the effect(s) of continuous intravenous infusion of ginsenoside Rb1 on incised wound of skin which enabled us to observe easily regeneration phenomena of tissues or cells was examined. Male, Wistar rats (body weight about 300 g) were used. The animals were bred in a room with a 12:12 hour light-dark cycle, and water and feed were supplied ad libitum. Incised wound with length about 3 cm was made in the dorsal region of animals under inhalation anesthesia, and sutured with nylon thread. One hour later, ginsenoside Rb1 (60 μg) dissolved in physiological saline was once intravenously injected. Thereafter continuous intravenous infusion of ginsenoside Rb1 (60 μg/day) was performed for 7 days by using an Alza osmotic minipump.
An equal amount of physiological saline was administered intravenously in the control animals, for which the same […] was made and sutured with nylon thread.
On day 2 after finishing continuous intravenous administration of ginsenoside Rb1 or physiological saline, the animals were anesthetized with pentobarbital and perfused transcardially with 0.1 M phosphate buffer containing 4% paraformaldehyde. […]

cerebral infarct lesion = system: cerebral infarct lesion; set-up: therapeutic effect for cerebral apoplexy and cerebral infarction: dose or concentration left out as unconfirmed; settings: cited from earlier work
spinal cord injury = settings: continuous intravenous administration 60 pg/day; cited from earlier work
[1] = system: cultured nerve cells (neurons); settings: same SNP culture system, Japanese Patent Appln. No. Hei 10-365560; cited from earlier work

SMILES: CC(C)=CCC[C@](C)(O[C@@H]1O[C@H](CO[C@@H]2O[C@H](CO)[C@@H](O)[C@H](O)[C@H]2O)[C@@H](O)[C@H](O)[C@H]1O)[C@H]1CC[C@]2(C)[C@@H]1[C@H](O)C[C@@H]1[C@@]3(C)CC[C@H](O[C@@H]4O[C@H](CO)[C@@H](O)[C@H](O)[C@H]4O[C@@H]4O[C@H](CO)[C@@H](O)[C@H](O)[C@H]4O)C(C)(C)[C@@H]3CC[C@]12C [ginsenoside Rb1]
- scar or granulation formation in incised wound (HE histology, FIG. 1) (incised wound of skin; 60 μg/day continuous iv for 7 days after one iv infusion, two days after end of infusion): scar or granulation formation was obviously little
- regeneration and reconstruction of epidermis, dermis and subcutaneous tissue after incised wound (incised wound of skin; 60 μg/day continuous iv for 7 days): regenerated, reconstructed or recovered to the nearly normal condition
- therapeutic effect for cerebral infarction and cerebral apoplexy (cerebral infarct lesion; continuous intravenous administration 6 μg/day): superior therapeutic effect
- therapeutic effect for cerebral apoplexy and cerebral infarction (cerebral infarct lesion; continuous intravenous administration): superior therapeutic effect
- volume of cerebral infarct lesion (cerebral infarct lesion; intravenous continuous administration of low dosages, JP Appln. No. Hei 10-365560): about ¼
- standing up of bed-ridden rats with spinal cord injury (spinal cord injury): could stand up bed-ridden rats
- extracellular fluid concentration that inhibits apoptosis or apoptosis-like cell death of nerve cells [1]: ≤ 1 ng/mL
